Experimental data: US20110060124A1, “HLA-BINDING PEPTIDES, PRECURSORS THEREOF, DNA FRAGMENTS AND RECOMBINANT VECTORS THAT CODE FOR THOSE PEPTIDE SEQUENCES” (priority 2004, published 2011)
Peptide text beside a SMILES is read from it.

system: HLA-A24 type molecule, product of the HLA-A*2402 gene; assay: Experiment of binding peptide to HLA-A24 type molecule (C1R-A24 cells, flow cytometry, Kd); set-up: species or system human; conditions: −log Kd value
Description: After neutralization, purified β2m was added to C1R-A24 cells, and the obtained product was added to serial dilutions of a peptide, and incubated on ice for 4 hours.
Subsequently, the MHC-pep count per C1R-A24 cell (proportional to the strength of fluorescence of the above-mentioned fluorescent antibody) was quantitatively measured using an FACScan fluorescence-activated cell sorter (Becton Dickinson Biosciences). A binding dissociation constant Kd value between the HLA-A24 type molecule and the peptide was calculated from the average strength of fluorescence per cell by a published method (Udaka et al., Immunogenetics, 51, 816-828, 2000).

SMILES | binding experimental value
CC[C@H](C)[C@H](N)C(=O)N[C@H](C(=O)N[C@@H](Cc1ccc(O)cc1)C(=O)N[C@@H](CO)C(=O)N[C@H](C(=O)N[C@@H](Cc1ccc(O)cc1)C(=O)NCC(=O)N[C@@H](CCCCN)C(=O)N[C@@H](Cc1ccccc1)C(=O)O)[C@@H](C)O)[C@@H](C)O [SEQ ID NO: 107] (H-ITYSTYGKF-OH; N-terminus and C-terminus assumed) | 6.374
CC[C@H](C)[C@H](NC(=O)[C@@H]1CCCN1C(=O)[C@H](CC(=O)O)NC(=O)[C@H](Cc1ccccc1)NC(=O)[C@H](CO)NC(=O)[C@H](CC(=O)O)NC(=O)[C@H](CC(C)C)NC(=O)[C@@H](NC(=O)[C@@H](N)C(C)C)[C@@H](C)CC)C(=O)O [SEQ ID NO: 2] (H-VILDSFDPI-OH; N-terminus and C-terminus assumed) | 5.324
CC[C@H](C)[C@H](N)C(=O)N[C@H](C(=O)N[C@@H](Cc1ccc(O)cc1)C(=O)N[C@@H](CO)C(=O)N[C@H](C(=O)N[C@@H](Cc1ccc(O)cc1)C(=O)N[C@@H](CS)C(=O)N[C@@H](CCCCN)C(=O)N[C@@H](Cc1ccccc1)C(=O)O)[C@@H](C)O)[C@@H](C)O [SEQ ID NO: 40] (H-ITYSTYCKF-OH; N-terminus and C-terminus assumed) | 6.975
